Paper PMC11488110 (Theranostics, 2024)

Assays:
[1] = target: T1, CYP2C9 (Homo sapiens, UniProt P11712); test: CYP inhibition assay, human liver microsomes; assay type: in vitro ADME
T1 construct: performed using 0.25 mg/mL human liver microsomes; from tissue; host or cells: human liver microsomes
Description: (§1) All incubations were performed in duplicate, and the mean values were used for analysis. Cocktail incubations were carried out using […] probe substrates of CYP1A2, CYP2C9, CYP2C19, CYP2D6, and CYP3A4: phenacetin, tolbutamide, mephenytoin, dextromethorphan and midazolam respectively, followed by tandem mass spectrometry. Briefly, an incubation reaction was performed using 0.25 mg/mL human liver microsomes in a final incubation volume of 100 μL. The incubation medium contained 100 mM phosphate buffer (pH 7.4) and probe substrates. The incubation mixture containing various inhibitors (10 μM) was pre-incubated for 5 min. After pre-incubation, an NADPH-regenerating system was added. After incubation at 37 °C for 15 min, the reaction was stopped by placing the incubation tubes on ice and adding 40 μL of ice-cold acetonitrile. The incubation mixtures were centrifuged at 10,000 g and 4 °C for 5 min. Aliquots of the supernatant were injected onto an LC-MS/MS system. The CYP-mediated activities in the presence of inhibitors were expressed as a percentage of the corresponding control value.
(§2) Ta b l e S2 . CYP inhibition, microsomal stability, and hERG in hibition of 5a .
(§3) CYP inhibitiona Microsomal stabilityb
(§4) ( % of c ont rol ac ti vit y) (% of remaining compound) hERG inhibitionc (IC50, μ M) […]
(§5) aCytochrome P450 (CYP450) enzyme activity was measured by incubating CYP450 enzyme isotype-specific substrates and liver microsomes in the presence of the test compound (10 μM) for 15 min. Data are expressed as percent of CYP enzyme activity relative to that of t he v ehicle-treated control. […]
(§6) a- cThe results of these three assays were obtained through the in vitro ADME/Tox study service of KMEDIhub, a contract research organization (CRO). The reported measurements are the mean of […]

[2] = target: T2, CYP2C19 (Homo sapiens, UniProt P33261); test: CYP inhibition assay, human liver microsomes; assay type: in vitro ADME
T2 construct: performed using 0.25 mg/mL human liver microsomes; from tissue; host or cells: human liver microsomes
Description: as §1, §2, §3, §4, §5, §6

[3] = target: T3, CYP2D6 (Homo sapiens, UniProt P10635); test: CYP inhibition assay, human liver microsomes; assay type: in vitro ADME
T3 construct: performed using 0.25 mg/mL human liver microsomes; from tissue; host or cells: human liver microsomes
Description: as §1, §2, §3, §4, §5, §6

[4] = target: T4, CYP3A4 (Homo sapiens, UniProt P08684); test: CYP inhibition assay, human liver microsomes; assay type: in vitro ADME
T4 construct: performed using 0.25 mg/mL human liver microsomes; from tissue; host or cells: human liver microsomes
Description: as §1, §2, §3, §4, §5, §6

[5] = target: T5, CYP1A2 (Homo sapiens, UniProt P05177); test: CYP inhibition assay, human liver microsomes; assay type: in vitro ADME
T5 construct: performed using 0.25 mg/mL human liver microsomes; from tissue; host or cells: human liver microsomes
T5 sequence (P05177 1-516): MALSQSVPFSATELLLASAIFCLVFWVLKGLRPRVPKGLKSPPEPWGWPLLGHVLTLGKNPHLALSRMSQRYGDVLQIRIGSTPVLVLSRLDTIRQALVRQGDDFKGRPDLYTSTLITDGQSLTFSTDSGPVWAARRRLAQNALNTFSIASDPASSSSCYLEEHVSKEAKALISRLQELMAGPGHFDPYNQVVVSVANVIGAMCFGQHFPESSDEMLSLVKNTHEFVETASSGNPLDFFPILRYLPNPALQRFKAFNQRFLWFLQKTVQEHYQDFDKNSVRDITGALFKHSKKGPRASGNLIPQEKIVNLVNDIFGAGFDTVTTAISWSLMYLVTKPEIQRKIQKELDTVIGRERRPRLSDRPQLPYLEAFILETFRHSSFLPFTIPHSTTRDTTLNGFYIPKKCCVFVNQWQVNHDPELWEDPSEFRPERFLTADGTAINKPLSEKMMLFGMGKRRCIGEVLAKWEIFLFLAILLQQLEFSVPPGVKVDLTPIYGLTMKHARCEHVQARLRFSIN
Description: as §1, §2, §3, §4, §5, §6

[6] = target: T6, hPPARγ (Homo sapiens, UniProt P37231); test: In vitro co-transfection (PPRE-luciferase) assay in CV-1 cells, hPPARγ; assay type: cell-based; details: 24 h, read-out: Potency (EC50) hPPARγ
T6 sequence (P37231 1-505): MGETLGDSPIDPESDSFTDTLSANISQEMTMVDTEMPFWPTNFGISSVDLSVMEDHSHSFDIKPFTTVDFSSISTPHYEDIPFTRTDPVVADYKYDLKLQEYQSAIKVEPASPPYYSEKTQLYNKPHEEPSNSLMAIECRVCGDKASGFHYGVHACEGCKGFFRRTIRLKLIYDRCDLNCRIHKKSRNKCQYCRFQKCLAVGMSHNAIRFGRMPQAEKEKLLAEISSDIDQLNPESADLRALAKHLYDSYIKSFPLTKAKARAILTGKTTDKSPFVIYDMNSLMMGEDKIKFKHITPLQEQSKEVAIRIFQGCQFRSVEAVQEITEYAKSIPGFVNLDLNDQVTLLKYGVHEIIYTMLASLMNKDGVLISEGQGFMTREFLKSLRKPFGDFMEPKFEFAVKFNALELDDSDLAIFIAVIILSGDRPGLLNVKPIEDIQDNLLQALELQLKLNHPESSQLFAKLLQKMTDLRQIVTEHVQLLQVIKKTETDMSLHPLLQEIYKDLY

[7] = target: T7, hERG channel (Homo sapiens, UniProt Q12809); test: biochemical; details: fluorescence polarization binding assay
T7 construct: purchased Invitrogen PV5365
Description: An hERG channel binding assay was performed using the Predictor hERG Fluorescence Polarization Assay Kit (PV5365, Invitrogen). […] Fluorescence intensity (excitation at 530 nm, emission at 590 nm) was measured using a multi-mode microplate reader Synergy Neo (Biotek). […]
as §2, §3, §4
aCytochrome P450 (CYP450) enzyme activity was measured by incubating CYP450 enzyme isotype-specific substrates and liver microsomes in the presence of the test compound (10 μM) for 15 min. Data are expressed as percent of CYP enzyme activity relative to that of t he v ehicle-treated control. bThe test compound was incubated with microsomes for 30 min and the percentage of the remaining compound was measured via liquid chromatography- tandem mass spectrometry (LC-MS/MS). cHuman Ether-à -go -go -related gene (hERG) channel binding assay was performed using a predictor hERG fluorescence polarization assay (Invitrogen); IC50 values were calculated with non-linear regression fit with four parameters. a- cThe results of these three assays were obtained through the in vitro ADME/Tox study service of KMEDIhub, a contract research organization (CRO). The reported measurements are the mean of […]

[8] = 10 μM, 15 min, human liver microsomes
[9] = stated for the five CYP subtypes, tested at 10 µM

T2 sequence (P33261 whole entry): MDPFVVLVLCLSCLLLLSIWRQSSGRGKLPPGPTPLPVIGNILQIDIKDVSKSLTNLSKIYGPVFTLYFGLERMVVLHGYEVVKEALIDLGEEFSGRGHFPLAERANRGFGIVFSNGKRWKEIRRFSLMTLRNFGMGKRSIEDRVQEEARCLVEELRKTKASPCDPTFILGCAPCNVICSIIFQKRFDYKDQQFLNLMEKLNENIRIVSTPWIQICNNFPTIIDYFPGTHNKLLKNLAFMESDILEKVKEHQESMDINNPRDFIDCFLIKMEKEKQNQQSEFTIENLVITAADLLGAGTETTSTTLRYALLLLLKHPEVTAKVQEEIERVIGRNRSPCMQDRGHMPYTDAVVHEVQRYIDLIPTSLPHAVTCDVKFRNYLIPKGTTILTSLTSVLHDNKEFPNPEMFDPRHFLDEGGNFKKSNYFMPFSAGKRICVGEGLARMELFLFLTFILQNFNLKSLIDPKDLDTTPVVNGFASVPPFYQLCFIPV
T3 sequence (P10635 whole entry): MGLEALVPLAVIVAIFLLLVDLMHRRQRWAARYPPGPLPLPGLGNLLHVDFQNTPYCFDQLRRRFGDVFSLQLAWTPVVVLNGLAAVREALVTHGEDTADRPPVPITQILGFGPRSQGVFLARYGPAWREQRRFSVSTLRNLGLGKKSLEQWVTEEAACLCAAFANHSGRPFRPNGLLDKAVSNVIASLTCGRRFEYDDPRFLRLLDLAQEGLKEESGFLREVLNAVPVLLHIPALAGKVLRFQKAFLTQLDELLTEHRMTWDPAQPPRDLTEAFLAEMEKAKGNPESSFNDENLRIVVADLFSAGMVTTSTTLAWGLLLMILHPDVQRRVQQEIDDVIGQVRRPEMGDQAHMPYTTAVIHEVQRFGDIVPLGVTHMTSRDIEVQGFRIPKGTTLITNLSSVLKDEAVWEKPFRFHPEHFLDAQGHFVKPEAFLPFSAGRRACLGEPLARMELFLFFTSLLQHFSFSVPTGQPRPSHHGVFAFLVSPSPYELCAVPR
T7 sequence (Q12809 whole entry): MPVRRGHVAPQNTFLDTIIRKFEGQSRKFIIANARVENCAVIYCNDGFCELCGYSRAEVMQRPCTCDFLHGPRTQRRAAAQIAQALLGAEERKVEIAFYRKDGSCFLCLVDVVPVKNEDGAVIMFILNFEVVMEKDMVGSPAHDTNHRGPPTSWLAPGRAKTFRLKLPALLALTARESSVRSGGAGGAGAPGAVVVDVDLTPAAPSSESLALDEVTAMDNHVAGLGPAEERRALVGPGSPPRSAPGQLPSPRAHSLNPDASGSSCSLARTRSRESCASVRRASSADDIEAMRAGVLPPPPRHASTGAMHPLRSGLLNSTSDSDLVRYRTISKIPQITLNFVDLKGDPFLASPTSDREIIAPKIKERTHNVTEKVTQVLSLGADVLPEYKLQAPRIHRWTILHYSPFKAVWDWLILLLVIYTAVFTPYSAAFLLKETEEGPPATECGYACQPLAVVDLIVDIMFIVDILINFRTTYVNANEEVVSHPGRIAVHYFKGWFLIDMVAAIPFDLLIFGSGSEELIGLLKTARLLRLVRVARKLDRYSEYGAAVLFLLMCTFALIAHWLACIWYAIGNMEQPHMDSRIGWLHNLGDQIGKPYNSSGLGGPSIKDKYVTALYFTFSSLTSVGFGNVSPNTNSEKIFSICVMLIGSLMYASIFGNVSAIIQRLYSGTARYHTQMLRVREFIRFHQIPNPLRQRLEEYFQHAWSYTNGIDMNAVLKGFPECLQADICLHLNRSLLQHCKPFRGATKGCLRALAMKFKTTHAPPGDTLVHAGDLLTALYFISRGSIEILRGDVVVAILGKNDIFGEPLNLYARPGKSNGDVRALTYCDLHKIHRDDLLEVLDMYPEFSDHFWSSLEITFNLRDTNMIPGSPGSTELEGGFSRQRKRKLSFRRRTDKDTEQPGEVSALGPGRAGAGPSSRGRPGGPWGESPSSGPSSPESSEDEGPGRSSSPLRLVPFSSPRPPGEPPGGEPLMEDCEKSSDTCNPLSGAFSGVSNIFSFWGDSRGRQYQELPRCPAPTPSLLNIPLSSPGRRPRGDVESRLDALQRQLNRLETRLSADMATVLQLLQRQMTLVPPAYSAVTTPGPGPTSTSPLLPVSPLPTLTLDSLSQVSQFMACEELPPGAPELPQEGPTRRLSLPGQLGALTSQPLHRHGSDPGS
T4 sequence (P08684 whole entry): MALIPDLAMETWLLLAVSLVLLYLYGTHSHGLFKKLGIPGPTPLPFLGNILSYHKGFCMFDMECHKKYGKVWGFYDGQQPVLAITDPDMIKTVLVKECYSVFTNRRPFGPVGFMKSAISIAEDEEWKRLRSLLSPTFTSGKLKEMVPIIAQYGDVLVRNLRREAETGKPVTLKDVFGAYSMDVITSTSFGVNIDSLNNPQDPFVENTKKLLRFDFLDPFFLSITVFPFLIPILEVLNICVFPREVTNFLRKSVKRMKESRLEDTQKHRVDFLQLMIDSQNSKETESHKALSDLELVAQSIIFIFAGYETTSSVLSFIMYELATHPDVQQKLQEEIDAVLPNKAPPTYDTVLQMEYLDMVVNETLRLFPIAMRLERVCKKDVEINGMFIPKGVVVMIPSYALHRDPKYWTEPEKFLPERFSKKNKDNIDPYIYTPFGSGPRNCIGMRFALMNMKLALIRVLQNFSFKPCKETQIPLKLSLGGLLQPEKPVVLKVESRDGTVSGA
T1 sequence (P11712 whole entry): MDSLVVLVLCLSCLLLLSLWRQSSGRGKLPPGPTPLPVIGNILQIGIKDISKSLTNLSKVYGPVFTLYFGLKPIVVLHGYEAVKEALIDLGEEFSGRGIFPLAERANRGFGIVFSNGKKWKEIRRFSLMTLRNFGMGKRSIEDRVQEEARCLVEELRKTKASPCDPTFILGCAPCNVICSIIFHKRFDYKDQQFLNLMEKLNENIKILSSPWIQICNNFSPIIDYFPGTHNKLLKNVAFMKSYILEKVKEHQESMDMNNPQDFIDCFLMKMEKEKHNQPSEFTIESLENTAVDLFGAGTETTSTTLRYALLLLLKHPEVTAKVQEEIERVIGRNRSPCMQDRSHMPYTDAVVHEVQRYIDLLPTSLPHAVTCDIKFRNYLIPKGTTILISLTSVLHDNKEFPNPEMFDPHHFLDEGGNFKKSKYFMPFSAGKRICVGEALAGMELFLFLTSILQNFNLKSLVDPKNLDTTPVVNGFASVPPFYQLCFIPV

With `Cc1cc(SCc2[se]c(-c3ccc(C(F)(F)F)cc3)nc2C)ccc1OCC(=O)O` [Compound 5a, {2-Methyl-4-[4-methyl-2-(4-trifluoromethyl-phenyl)-selenazol-5-yl-methylsulfanyl]-phenoxy}-acetic acid] the “CYP inhibition 2C9 (% of control activity)” value [1, 8] was 63.6 % of control activity, the IC50 [1, 9] was greater than 10 µM and the “CYP inhibition 2C19 (% of control activity)” value [2, 8] was 88.6 % of control activity. For the same molecule, the IC50 [2, 9] was greater than 10 µM, the “CYP inhibition 2D6 (% of control activity)” value [3, 8] was 92.1 % of control activity and the IC50 [3, 9] was greater than 10 µM. For the same molecule, the “CYP inhibition 3A4 (% of control activity)” value [4, 8] was 94.9 % of control activity, the IC50 [4, 9] was greater than 10 µM and the “CYP inhibition 1A2 (% of control activity)” value [5, 8] was 78.1 % of control activity. For the same molecule, the IC50 [5, 9] was greater than 10 µM, the EC50 [6] was greater than 10 µM and the “hERG inhibition (IC50)” value [7] was “low inhibitory effects”. It also gave an IC50 ([7]; read-out: hERG inhibition (IC50)) of 9 µM.
